Each compound was assayed against HIS-TGFβR1 T204D (Homo sapiens (Human), UniProt P36897, T204D) (assay: HTRF probe-displacement assay, HIS-TGFβR1 T204D). Settings: 1 hour at room temperature.
Assay type: binding

Sequence of HIS-TGFβR1 T204D (P36897 34-503 T204D): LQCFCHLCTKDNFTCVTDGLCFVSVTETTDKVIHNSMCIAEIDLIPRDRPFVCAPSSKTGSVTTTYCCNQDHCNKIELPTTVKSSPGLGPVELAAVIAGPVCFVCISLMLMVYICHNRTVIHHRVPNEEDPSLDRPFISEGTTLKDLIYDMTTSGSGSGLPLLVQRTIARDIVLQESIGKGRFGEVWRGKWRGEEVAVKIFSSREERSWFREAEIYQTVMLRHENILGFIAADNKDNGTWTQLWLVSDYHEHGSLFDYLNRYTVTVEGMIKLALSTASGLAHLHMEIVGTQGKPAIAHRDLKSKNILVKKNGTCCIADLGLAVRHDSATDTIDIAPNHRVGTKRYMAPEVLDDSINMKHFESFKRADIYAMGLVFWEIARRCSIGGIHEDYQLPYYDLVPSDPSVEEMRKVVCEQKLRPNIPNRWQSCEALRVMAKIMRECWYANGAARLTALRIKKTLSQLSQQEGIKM

IC50 [µM] | SMILES
0.0016 | Cc1cccc(-c2nc(Nc3ccncc3Cl)c3cccn3n2)n1 [Example 59, 3-chloro-N-[2-(6-methylpyridin-2-yl)pyrrolo[2,1-f][1,2,4]triazin-4-yl]pyridin-4-amine]
0.016 | CCc1nnc(CNC(=O)c2cnccc2Nc2nc(-c3cccc(C(F)F)n3)nn3cccc23)o1 [Example 182, 4-({2-[6-(difluoromethyl)pyridin-2-yl]pyrrolo[2,1-f][1,2,4]triazin-4-yl}amino)-N-[(5-ethyl-1,3,4-oxadiazol-2-yl)methyl]pyridine-3-carboxamide]
0.36 | N#Cc1cc(Nc2nc(-c3cccc(C(F)(F)F)n3)nn3cccc23)ccn1 [Example 292, 4-({2-[6-(trifluoromethyl)pyridin-2-yl]pyrrolo[2,1-f][1,2,4]triazin-4-yl}amino)pyridine-2-carbonitrile]
0.019 | CCN(CC)CCNC(=O)c1cnccc1Nc1nc(-c2ccccn2)nn2cccc12 [Example 143, N-[2-(diethylamino)ethyl]-4-{[2-(pyridin-2-yl)pyrrolo[2,1-f][1,2,4]triazin-4-yl]amino}pyridine-3-carboxamide]
0.0061 | CC(=O)Nc1cc(Nc2nc(-c3ccc(F)c(C(F)F)n3)nn3cccc23)ccn1 [Example 11, N-[4-({2-[6-(difluoromethyl)-5-fluoropyridin-2-yl]pyrrolo[2,1-f][1,2,4]triazin-4-yl}amino)pyridin-2-yl]acetamide]
4.9 | COc1cccc(-c2nc(Nc3ccncc3F)c3c(OCCN4CCCC4)ccn3n2)n1 [Example 45, 3-fluoro-N-[2-(6-methoxypyridin-2-yl)-5-[2-(pyrrolidin-1-yl)ethoxy]pyrrolo[2,1-f][1,2,4]triazin-4-yl]pyridin-4-amine]
0.012 | CN1CCN(CCCNCc2ccn3nc(-c4ccccn4)nc(Nc4ccncc4F)c23)CC1 [Example 283, 3-fluoro-N-[5-({[3-(4-methylpiperazin-1-yl)propyl]amino}methyl)-2-(pyridin-2-yl)pyrrolo[2,1-f][1,2,4]triazin-4-yl]pyridin-4-amine]
0.049 | CC(C)(O)CNC(=O)c1cnccc1Nc1nc(-c2cccc(C(F)F)n2)nn2cccc12 [Example 188, 4-({2-[6-(difluoromethyl)pyridin-2-yl]pyrrolo[2,1-f][1,2,4]triazin-4-yl}amino)-N-(2-hydroxy-2-methylpropyl)pyridine-3-carboxamide]
0.53 | COc1nccc(-c2nc(Nc3ccncc3F)c3cccn3n2)n1 [Example 101, 3-fluoro-N-[2-(2-methoxypyrimidin-4-yl)pyrrolo[2,1-f][1,2,4]triazin-4-yl]pyridin-4-amine]
0.00076 | NC(=O)c1cnccc1Nc1nc(-c2ccccn2)nn2cccc12 [Example 83, 4-{[2-(pyridin-2-yl)pyrrolo[2,1-f][1,2,4]triazin-4-yl]amino}pyridine-3-carboxamide]
0.003 | CN1CCN(Cc2ccn3nc(-c4ccc(F)cn4)nc(Nc4ccncc4F)c23)CC1 [Example 234, 3-fluoro-N-[2-(5-fluoropyridin-2-yl)-5-[(4-methylpiperazin-1-yl)methyl]pyrrolo[2,1-f][1,2,4]triazin-4-yl]pyridin-4-amine]
0.0054 | COc1cccc(-c2nc(Nc3ccncc3Cl)c3cccn3n2)n1 [Example 60, 3-chloro-N-[2-(6-methoxypyridin-2-yl)pyrrolo[2,1-f][1,2,4]triazin-4-yl]pyridin-4-amine]
0.0004 | Fc1cnccc1Nc1nc(-c2ccccn2)nn2ccc(CNCc3ccc4c(c3)OCO4)c12 [Example 294, N-(5-{[(2H-1,3-benzodioxol-5-ylmethyl)amino]methyl}-2-(pyridin-2-yl)pyrrolo[2,1-f][1,2,4]triazin-4-yl)-3-fluoropyridin-4-amine]
0.034 | Cc1cccc(-c2nc(Nc3ccncc3C(=O)NC(C)(C)CO)c3cccn3n2)n1 [Example 157, N-(1-hydroxy-2-methylpropan-2-yl)-4-{[2-(6-methylpyridin-2-yl)pyrrolo[2,1-f][1,2,4]triazin-4-yl]amino}pyridine-3-carboxamide]
0.26 | COc1cccc(-c2nc(Nc3ccncc3F)c3c(C(O)CN4CCC(N(C)C)CC4)ccn3n2)n1 (centres unmarked) [Example 30, 2-[4-(dimethylamino)piperidin-1-yl]-1-{4-[(3-fluoropyridin-4-yl)amino]-2-(6-methoxypyridin-2-yl)pyrrolo[2,1-f][1,2,4]triazin-5-yl}ethan-1-ol]
0.00079 | N#CCCC(=O)Nc1cc(Nc2nc(-c3cccc(C(F)(F)F)n3)nn3cccc23)ccn1 [Example 338, 3-cyano-N-[4-({2-[6-(trifluoromethyl)pyridin-2-yl]pyrrolo[2,1-f][1,2,4]triazin-4-yl}amino)pyridin-2-yl]propanamide]
0.0019 | FC(F)(F)c1cccc(-c2nc(Nc3ccncc3Cl)c3cccn3n2)n1 [Example 86, 3-chloro-N-{2-[6-(trifluoromethyl)pyridin-2-yl]pyrrolo[2,1-f][1,2,4]triazin-4-yl}pyridin-4-amine]

IC50 [µM] | SMILES
0.075 | Cc1cccc(-c2nc(Nc3ccncc3C(=O)NC3CCOCC3)c3cccn3n2)n1 [Example 164, 4-{[2-(6-methylpyridin-2-yl)pyrrolo[2,1-f][1,2,4]triazin-4-yl]amino}-N-(oxan-4-yl)pyridine-3-carboxamide]
0.0047 | Cc1nnc(NCc2ccn3nc(-c4ccccn4)nc(Nc4ccncc4F)c23)s1 [Example 308, 3-fluoro-N-(5-{[(5-methyl-1,3,4-thiadiazol-2-yl)amino]methyl}-2-(pyridin-2-yl)pyrrolo[2,1-f][1,2,4]triazin-4-yl)pyridin-4-amine]
0.025 | O=C(NCCN1CCCCC1)c1cnccc1Nc1nc(-c2ccccn2)nn2cccc12 [Example 144, N-[2-(piperidin-1-yl)ethyl]-4-{[2-(pyridin-2-yl)pyrrolo[2,1-f][1,2,4]triazin-4-yl]amino}pyridine-3-carboxamide]
0.028 | Cc1cccc(-c2nc(Nc3ccncc3C(=O)NC3CCOC3)c3cccn3n2)n1 (centres unmarked) [Example 161, 4-{[2-(6-methylpyridin-2-yl)pyrrolo[2,1-f][1,2,4]triazin-4-yl]amino}-N-(oxolan-3-yl)pyridine-3-carboxamide]
0.014 | Fc1cccc(-c2nc(Nc3ccncc3)c3cccn3n2)n1 [Example 213, N-[2-(6-fluoropyridin-2-yl)pyrrolo[2,1-f][1,2,4]triazin-4-yl]pyridin-4-amine]
0.083 | O=C(NCCCN1CCS(=O)(=O)CC1)c1cnccc1Nc1nc(-c2ccccn2)nn2cccc12 [Example 148, N-[3-(1,1-dioxo-1,4-thiomorpholin-4-yl)propyl]-4-{[2-(pyridin-2-yl)pyrrolo[2,1-f][1,2,4]triazin-4-yl]amino}pyridine-3-carboxamide]
0.0025 | Fc1cnccc1Nc1nc(-c2ccccn2)nn2ccc(CNCCc3ccccn3)c12 [Example 304, 3-fluoro-N-[2-(pyridin-2-yl)-5-({[2-(pyridin-2-yl)ethyl]amino}methyl)pyrrolo[2,1-f][1,2,4]triazin-4-yl]pyridin-4-amine]
0.0069 | CSc1nccc(-c2nc(Nc3ccncc3)c3cccn3n2)n1 [Example 215, N-{2-[2-(methylsulfanyl)pyrimidin-4-yl]pyrrolo[2,1-f][1,2,4]triazin-4-yl}pyridin-4-amine]
3.5 | O=C(c1cnccc1Nc1nc(-c2cccc(C(F)F)n2)nn2cccc12)N1CCC(O)CC1 [Example 200, 1-[4-({2-[6-(difluoromethyl)pyridin-2-yl]pyrrolo[2,1-f][1,2,4]triazin-4-yl}amino)pyridine-3-carbonyl]piperidin-4-ol]
0.032 | O=C(c1cnccc1Nc1nc(-c2cccc(C(F)F)n2)nn2cccc12)N1CCCC1 [Example 186, N-{2-[6-(difluoromethyl)pyridin-2-yl]pyrrolo[2,1-f][1,2,4]triazin-4-yl}-3-(pyrrolidine-1-carbonyl)pyridin-4-amine]
3 | Fc1ccc(-c2nc(Nc3cc(Cl)ncc3F)c3cccn3n2)nc1 [Example 317, 2-chloro-5-fluoro-N-[2-(5-fluoropyridin-2-yl)pyrrolo[2,1-f][1,2,4]triazin-4-yl]pyridin-4-amine]
0.54 | COc1cccc(-c2nc(Nc3ccncc3F)c3c(C(O)CNCCN4CCCCC4)ccn3n2)n1 (centres unmarked) [Example 130, 1-{4-[(3-fluoropyridin-4-yl)amino]-2-(6-methoxypyridin-2-yl)pyrrolo[2,1-f][1,2,4]triazin-5-yl}-2-{[2-(piperidin-1-yl)ethyl]amino}ethan-1-ol]
0.005 | COC(=O)Nc1cc(Nc2nc(-c3cccc(OC)n3)nn3cccc23)ccn1 [Example 68, Methyl N-(4-{[2-(6-methoxypyridin-2-yl)pyrrolo[2,1-f][1,2,4]triazin-4-yl]amino}pyridin-2-yl)carbamate]
0.89 | NC(=O)c1cc(Nc2nc(-c3cccc(C(F)(F)F)n3)nn3cccc23)ccn1 [Example 315, 4-({2-[6-(trifluoromethyl)pyridin-2-yl]pyrrolo[2,1-f][1,2,4]triazin-4-yl}amino)pyridine-2-carboxamide]
0.022 | COc1cccc(-c2nc(Nc3ccncc3F)c3c(CN4CCN(C)CC4)ccn3n2)n1 [Example 121, 3-fluoro-N-[2-(6-methoxypyridin-2-yl)-5-[(4-methylpiperazin-1-yl)methyl]pyrrolo[2,1-f][1,2,4]triazin-4-yl]pyridin-4-amine]
0.049 | O=C(NCCN1CCNCC1)c1cnccc1Nc1nc(-c2ccccn2)nn2cccc12 [Example 151, N-[2-(piperazin-1-yl)ethyl]-4-{[2-(pyridin-2-yl)pyrrolo[2,1-f][1,2,4]triazin-4-yl]amino}pyridine-3-carboxamide]
0.001 | Fc1cnccc1Nc1nc(-c2ccccn2)nn2ccc(CNCC3CCCO3)c12 (centres unmarked) [Example 247, 3-fluoro-N-(5-{[(oxolan-2-ylmethyl)amino]methyl}-2-(pyridin-2-yl)pyrrolo[2,1-f][1,2,4]triazin-4-yl)pyridin-4-amine]

SMILES | IC50 [µM]
Cc1cccc(-c2nc(Nc3ccncc3OCCCCN(C)C)c3cccn3n2)n1 [Example 51, 3-[4-(dimethylamino)butoxy]-N-[2-(6-methylpyridin-2-yl)pyrrolo[2,1-f][1,2,4]triazin-4-yl]pyridin-4-amine] | 0.03

Reference: US10336761B2, “TGFβ receptor antagonist” (BRISTOL-MYERS SQUIBB COMPANY, priority 2015, dated 2019)
